Results on eleven molecules are retold here after ChEMBL document CHEMBL1201862, “PubChem BioAssay data set” (2004).

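Tested at 5 concentrations; 48 h exposure; 96-well plates; endpoints linearly interpolated, else capped at highest concentration. The concentration for 50% growth inhibition is given as GI50.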 The source made the active and inactive calls. Rule as the data show it: active = GI50 up to about 1.1 µM and inactive = higher. Where only a bound is given, the exact number is not on record here.

Experiment in all cases: growth of human tumour cells (NCI), 48 h
The subject of experiment [1] is RXF 393.
Experiment [2] has as its system Malme-3M.
In experiment [3] the test system is OVCAR-3.
Experiment [4] relates to KM12.
Experiment [5] has as its system CAKI-1.
The subject of experiment [6] is SK-MEL-2.
The test system of experiment [7] is LOX IMVI.
In experiment [8] the test system is COLO 205.
Experiment [9] concerns BT-549.
Experiment [10] has as its system PC-3.
Experiment [11] concerns SNB-19.
The subject of experiment [12] is ACHN.
In experiment [13] the test system is UACC-62.
The test system of experiment [14] is HCT-116.
The test system of experiment [15] is HOP-62.
The subject of experiment [16] is HCT-15.
In experiment [17] the test system is SK-MEL-5.
For experiment [18], the system named is MDA-MB-231.
In experiment [19] the test system is MOLT-4.

Consider `COCCOC1=CC(=O)c2c(O)ccc(O)c2C1=O`, for which the GI50 is 2.19 µM (inactive) in experiment [1]; 0.167 µM (active) in experiment [2]; 0.662 µM (active) in [3]; 1.93 µM (inactive) in experiment [4]; 2.59 µM (inactive) in [5]; 1.27 µM (inactive) in [6]. Moreover, the GI50 in experiment [7] was 0.726 µM (active); in experiment [8] it was 0.284 µM (active); in [9] it was 1.77 µM (inactive); in experiment [10], 2.34 µM (inactive); in experiment [11], 2.3 µM (inactive); in experiment [12], 1.87 µM (inactive). For the same molecule, the GI50 in experiment [13] was 1.85 µM (inactive); in experiment [14], 0.285 µM (active); in experiment [15], 0.724 µM (active); in [16], 1.02 µM; in [17], 0.163 µM (active); in [18] it was 1.75 µM (inactive). Further, the GI50 in experiment [19] was 2.43 µM (inactive).

Consider `CC(C)N/C(=N\C#N)NS(=O)(=O)c1cnccc1NC1CCCCCCC1`, for which the GI50 in experiment [1], in experiment [2], in experiment [3], in [4], in [5] and in experiment [6] was > 100 µM (inactive) throughout. Besides, the GI50 in experiment [8], in experiment [9], in experiment [10], in experiment [11], in experiment [12] and in [13] was > 100 µM (inactive) throughout. Further, the GI50 is > 100 µM (inactive) in [14]; > 100 µM (inactive) in [15]; over 100 µM in [16]; > 100 µM (inactive) in experiment [17]; > 100 µM (inactive) in experiment [18]; > 100 µM (inactive) in experiment [19].

For the molecule `O=C(c1cc2ccccc2[nH]1)N1C2CCC1CN(CCOC(c1ccc(F)cc1)c1ccc(F)cc1)CC2` (stereo unspecified), the GI50 in [1] is 3.97 µM (inactive); in experiment [2] it was > 100 µM (inactive); in experiment [3], 9.02 µM (inactive); in experiment [4], 60.3 µM (inactive); in experiment [5] it was 6.81 µM (inactive); in experiment [6] it was 81.8 µM (inactive). The GI50 is 9.48 µM (inactive) in experiment [7]; 5 µM (inactive) in [8]; > 100 µM (inactive) in experiment [9]; 2.79 µM (inactive) in experiment [10]; > 100 µM (inactive) in experiment [11]; 95.1 µM (inactive) in [12]. The GI50 in experiment [13] was 52 µM (inactive); in experiment [14], 5.09 µM (inactive); in experiment [15], > 100 µM (inactive); in experiment [16], 3.24 µM; in [17], 5.77 µM (inactive); in [18], 9.2 µM (inactive). Also, in experiment [19], the GI50 was 4.91 µM (inactive).

In the case of `COC(=O)c1cc(C)ccc1CC(Cc1ccccc1C)C(=O)OC` (stereo unspecified), the GI50 in experiment [1] was 26.9 µM (inactive); in experiment [2], 23.2 µM (inactive); in experiment [3] it was 24.4 µM (inactive); in experiment [4], 23.8 µM (inactive); in experiment [5] it was 32.8 µM (inactive); in experiment [7], 12.5 µM (inactive). The GI50 in experiment [8] was 46.2 µM (inactive); in experiment [9], 61.7 µM (inactive); in experiment [10], 55.2 µM (inactive); in [11], > 100 µM (inactive); in experiment [12], 75.2 µM (inactive); in [13], 27.5 µM (inactive). The GI50 in experiment [14] is 14.7 µM (inactive); in [15], > 100 µM (inactive); in experiment [16], 21.4 µM; in experiment [17], 14.1 µM (inactive); in [18] it was 59.6 µM (inactive); in experiment [19] it was 2.56 µM (inactive).

For `Oc1ccc(Cl)cc1/N=N\c1c(O)ccc2ccccc12`, the GI50 in experiment [1] was > 100 µM (inactive); in experiment [2], 22.2 µM (inactive); in [3], > 100 µM (inactive); in experiment [4], > 100 µM (inactive); in experiment [5], > 100 µM (inactive); in experiment [6], > 100 µM (inactive). Also, the GI50 in experiment [7] is 60.7 µM (inactive); in experiment [8] it was > 100 µM (inactive); in experiment [9] it was > 100 µM (inactive); in experiment [10] it was > 100 µM (inactive); in [11] it was > 100 µM (inactive); in experiment [12], > 100 µM (inactive). Moreover, the GI50 in experiment [13] is > 100 µM (inactive); in [14], > 100 µM (inactive); in [15] it was > 100 µM (inactive); in experiment [16] it was over 100 µM; in experiment [17], 92.7 µM (inactive); in experiment [18] it was > 100 µM (inactive). The GI50 in [19] was 35 µM (inactive).

As to `CC(=O)O[C@H]1CC[C@@]2(C)C(=CC[C@@H]3[C@@H]2CC[C@]2(C)C(=N/O)/C(=C\c4ccccc4)C[C@@H]32)C1`, the GI50 in experiment [1] is 9.48 µM (inactive); in [2], 4.14 µM (inactive); in [3], 11.3 µM (inactive); in experiment [4], 3.2 µM (inactive); in experiment [5], 24.7 µM (inactive); in [6], 13 µM (inactive). Further, the GI50 in experiment [7] was 9.14 µM (inactive); in [8], 10.6 µM (inactive); in [9], 16.5 µM (inactive); in experiment [10] it was 5.96 µM (inactive); in experiment [11], > 55 µM (inactive); in experiment [12], 23.6 µM (inactive). For the same molecule, the GI50 in experiment [13] is 5.94 µM (inactive); in experiment [14], 6.12 µM (inactive); in [15] it was 16.7 µM (inactive); in experiment [16], 16.5 µM; in experiment [17], 2.08 µM (inactive); in [18], 20.5 µM (inactive). Moreover, the GI50 in experiment [19] is 3.08 µM (inactive).

As to `N#CC1CCN2N=C(c3ccccc3)SC12c1ccccc1` (stereo unspecified), the GI50 was 31.3 µM (inactive) in [1]; > 100 µM (inactive) in experiment [2]; 48.6 µM (inactive) in experiment [4]; 35.4 µM (inactive) in [5]; 53.3 µM (inactive) in experiment [6]; 51.9 µM (inactive) in experiment [7]. Further, the GI50 was 40.7 µM (inactive) in experiment [8]; 43 µM (inactive) in [9]; 35.7 µM (inactive) in experiment [10]; > 100 µM (inactive) in experiment [11]; 21.1 µM (inactive) in [12]; 4.91 µM (inactive) in experiment [13]. In addition, the GI50 was 35.2 µM (inactive) in experiment [14]; > 100 µM (inactive) in [15]; 38.5 µM in [16]; 34.4 µM (inactive) in experiment [17]; > 100 µM (inactive) in experiment [18]; 17.5 µM (inactive) in [19].

As for `C=CCOc1ccc2c(C)cc(=O)oc2c1C`, the GI50 is 23.1 µM (inactive) in experiment [1]; > 100 µM (inactive) in [2]; > 100 µM (inactive) in experiment [3]; 59.7 µM (inactive) in experiment [4]; 24.1 µM (inactive) in experiment [5]; > 100 µM (inactive) in experiment [6]. For the same molecule, the GI50 is 43.8 µM (inactive) in experiment [7]; 44.3 µM (inactive) in experiment [8]; 32 µM (inactive) in experiment [9]; 35.3 µM (inactive) in experiment [10]; 61.4 µM (inactive) in experiment [11]; 51.8 µM (inactive) in experiment [12]. Further, the GI50 in [13] was 82.6 µM (inactive); in experiment [14] it was 40.5 µM (inactive); in experiment [15] it was > 100 µM (inactive); in experiment [16], 42.8 µM; in experiment [17], 32.4 µM (inactive); in experiment [18], 32.2 µM (inactive). Besides, the GI50 in experiment [19] is 35.1 µM (inactive).

On to `c1ccc(C(/C(=N/c2ccc(Cc3ccc(/N=C(\C(c4ccccc4)c4ccccc4)N4CC4)cc3)cc2)N2CC2)c2ccccc2)cc1`, for which the GI50 in experiment [1] is 1.09 µM (active); in experiment [2] it was 14.9 µM (inactive); in [3] it was 3.66 µM (inactive); in [4] it was 6.28 µM (inactive); in experiment [5], 6.95 µM (inactive); in [6] it was 7.01 µM (inactive). In addition, the GI50 in experiment [7] is 1.53 µM (inactive); in experiment [8] it was 3.27 µM (inactive); in [9] it was 10.5 µM (inactive); in experiment [10] it was 3.83 µM (inactive); in [11] it was 13.1 µM (inactive); in experiment [12], 5.82 µM (inactive). The GI50 in experiment [13] was 2.32 µM (inactive); in experiment [14], 4.36 µM (inactive); in [15] it was 12.8 µM (inactive); in [16] it was 10.1 µM; in experiment [17] it was 5.04 µM (inactive); in experiment [18], 12.2 µM (inactive).

Consider `N=C(N)n1nc2c(c1O)CCC2`, for which the GI50 in [1], in [2], in experiment [3], in [5], in [6] and in [7] was > 100 µM (inactive) throughout. The GI50 in experiment [8], in experiment [9], in experiment [10], in experiment [11], in experiment [12] and in experiment [13] was > 100 µM (inactive) each time. The GI50 in experiment [14] was > 100 µM (inactive); in experiment [15], > 100 µM (inactive); in experiment [16] it was over 100 µM; in experiment [17] it was > 100 µM (inactive); in experiment [18] it was > 100 µM (inactive).

As for `S=c1oc(CCCCCCCCc2nn(CNc3ccc(Cl)cc3)c(=S)o2)nn1CNc1ccc(Cl)cc1`, the GI50 was > 100 µM (inactive) in experiment [1]; > 100 µM (inactive) in [2]; 35.8 µM (inactive) in experiment [4]; 33.8 µM (inactive) in [5]; > 100 µM (inactive) in experiment [6]; 7.38 µM (inactive) in experiment [8]. Moreover, the GI50 in [9] is > 100 µM (inactive); in experiment [10], 29.3 µM (inactive); in experiment [11] it was > 100 µM (inactive); in experiment [12], 72.3 µM (inactive); in [13], 3.88 µM (inactive); in experiment [14] it was > 100 µM (inactive). For the same molecule, the GI50 in experiment [15] was 7.52 µM (inactive); in experiment [16] it was over 100 µM; in experiment [17], 3.27 µM (inactive); in [18], > 100 µM (inactive); in [19], > 100 µM (inactive).
